Laboratory results reported in US11970479B2, “3-(1H-pyrazol-4-yl)pyridine allosteric modulators of the M4 muscarinic acetylcholine receptor” (Merck Sharp & Dohme LLC, priority 2018, dated 2024).

Target: T1, human M4 muscarinic acetylcholine receptor (Homo sapiens, UniProt P08173)
T1 construct: expressed in transfected cells
T1 sequence (P08173 1-479): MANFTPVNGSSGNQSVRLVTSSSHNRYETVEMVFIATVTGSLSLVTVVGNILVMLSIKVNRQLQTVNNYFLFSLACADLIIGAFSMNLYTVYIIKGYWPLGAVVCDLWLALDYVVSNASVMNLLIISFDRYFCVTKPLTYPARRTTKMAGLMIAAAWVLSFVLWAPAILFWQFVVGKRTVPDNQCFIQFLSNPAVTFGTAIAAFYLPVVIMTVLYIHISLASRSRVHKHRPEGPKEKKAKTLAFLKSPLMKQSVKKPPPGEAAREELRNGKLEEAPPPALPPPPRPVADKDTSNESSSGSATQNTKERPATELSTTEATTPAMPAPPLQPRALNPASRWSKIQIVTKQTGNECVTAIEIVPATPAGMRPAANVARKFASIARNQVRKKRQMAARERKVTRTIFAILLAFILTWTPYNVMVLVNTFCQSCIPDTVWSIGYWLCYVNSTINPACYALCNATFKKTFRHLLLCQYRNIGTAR
Experiment: human FLIPR-based M4 PAM assay (CHO-K1 cells with human M4 receptor and Gαqi5, calcium dye fluorescence, EC20 acetylcholine)
Format: cell-based
Conditions: inflection point (IP) of the dose response curve, human M4 receptor/Gαqi5, acetylcholine at 20% of maximum response, read-out: M4PAM Hu IP
How it was run: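 CHO-K1 cells stably expressing human M4 and chimeric Gαqi5 were dye-loaded ~1 h at 37° C. Test compound was added with fluorescence recorded 4 min, then acetylcholine at EC20 (sometimes a further EC70 addition) with reading 3.5 min. Value is the inflection point of a 4-parameter logistic fit.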

Row | Structure (SMILES) | EC50
1 | COc1cc2ccc(-c3nc(C#N)ccc3-c3cnn(CC(F)(F)C(F)(F)F)c3)cc2nn1 [Example 112, 6-(3-methoxycinnolin-7-yl)-5-[1-(2,2,3,3,3-pentafluoropropyl)-1H-pyrazol-4-yl]pyridine-2-carbonitrile] | 138 nM
2 | CC(C)(CO)Cn1cc(-c2ccc(C#N)nc2-c2ccc3cccnc3c2)cn1 [Example 113, 5-[1-(3-hydroxy-2,2-dimethylpropyl)-1H-pyrazol-4-yl]-6-quinolin-7-ylpyridine-2-carbonitrile] | 139 nM
3 | COc1cc2ccc(-c3nc(C)ccc3-c3cnn(CC(C)(C)F)c3)cc2nn1 [Example 114, 7-{3-[1-(2-fluoro-2-methylpropyl)-1H-pyrazol-4-yl]-6-methylpyridin-2-yl}-3-methoxycinnoline] | 191 nM

Continued, values first:

Row | EC50 | Structure (SMILES)
4 | 190 nM | COc1cc2ccc(-c3nc(C(F)F)ccc3-c3cnn(CC(C)(C)F)c3)cc2nn1 [Example 115, 7-{6-(difluoromethyl)-3-[1-(2-fluoro-2-methylpropyl)-1H-pyrazol-4-yl]pyridin-2-yl}-3-methoxycinnoline]
5 | 39 nM | N#Cc1ccc(-c2cnn(CC3(F)CCC3)c2)c(-c2ccc3cccnc3c2)n1 [Example 116, 5-{1-[(1-fluorocyclobutyl)methyl]-1H-pyrazol-4-yl}-6-quinolin-7-ylpyridine-2-carbonitrile]
6 | 104 nM | CC(C)(O)C(F)(F)Cn1cc(-c2ccc(C#N)nc2-c2ccc3cccnc3c2)cn1 [Example 117, 5-[1-(2,2-difluoro-3-hydroxy-3-methylbutyl)-1H-pyrazol-4-yl]-6-quinolin-7-ylpyridine-2-carbonitrile]
